{"source": "paper PMC12039075", "about": "(Structure (London, England : 1993), 2022)", "origin": "cited, not measured here", "test_system": "human nicotinic receptor (HNR) α4/β2 subunit", "data": [{"smiles": "CN1CCC[C@H]1c1cccnc1", "note": "[nicotine]", "values": [{"measurement": "published affinity range", "value": "0.6 to 10", "unit": "nM"}]}]}
